Test results published in ChEMBL document CHEMBL1201862, “PubChem BioAssay data set” (2004).
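All cell lines were grown in 96-well plates and treated with compound for 48 hours. Abbreviation: GI50, concentration required for 50% inhibition of growth.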 Activity calls are given as the source filed them. No stated cut-off is given here; in the data, active = GI50 up to about 1.1 µM and inactive = higher.

Tests used:
Test in all cases: growth of human tumour cells (NCI), 48 h
NCI-H226 = system: NCI-H226
PC-3 = system: PC-3
Malme-3M = system: Malme-3M
SF-539 = system: SF-539
MDA-MB-231 = system: MDA-MB-231
Hs-578T = system: Hs-578T
MCF7 = system: MCF7
T47D = system: T47D
COLO 205 = system: COLO 205
SK-MEL-28 = system: SK-MEL-28
SN12C = system: SN12C
TK-10 = system: TK-10
UO-31 = system: UO-31
SR = system: SR
MDA-N = system: MDA-N
OVCAR-5 = system: OVCAR-5
HL-60 = system: HL-60
OVCAR-4 = system: OVCAR-4
CAKI-1 = system: CAKI-1
HOP-62 = system: HOP-62

| Compound | GI50 (NCI-H226) | GI50 (PC-3) | GI50 (Malme-3M) | GI50 (SF-539) | GI50 (MDA-MB-231) | GI50 (Hs-578T) | GI50 (MCF7) | GI50 (T47D) | GI50 (COLO 205) | GI50 (SK-MEL-28) | GI50 (SN12C) | GI50 (TK-10) | GI50 (UO-31) | GI50 (SR) | GI50 (MDA-N) | GI50 (OVCAR-5) | GI50 (HL-60) | GI50 (OVCAR-4) | GI50 (CAKI-1) | GI50 (HOP-62) |
| --- | --- | --- | --- | --- | --- | --- | --- | --- | --- | --- | --- | --- | --- | --- | --- | --- | --- | --- | --- | --- |
| C=CCn1cnc2c(O)nc(Nc3ccccc3)nc21 | > 100 µM (inactive) | > 100 µM (inactive) | > 100 µM (inactive) | > 100 µM (inactive) | > 100 µM (inactive) | > 100 µM (inactive) | > 100 µM (inactive) | > 100 µM (inactive) | > 100 µM (inactive) | > 100 µM (inactive) | > 100 µM (inactive) | > 100 µM (inactive) | 50.5 µM (inactive) | > 100 µM (inactive) | > 100 µM (inactive) | > 100 µM (inactive) | > 100 µM (inactive) | > 100 µM (inactive) | > 100 µM (inactive) | > 100 µM (inactive) |
| CCOC(C[Se]CC(OCC)OCC)OCC | 21.5 µM (inactive) | 37.9 µM (inactive) | 61.5 µM (inactive) | 28.7 µM (inactive) | 52.5 µM (inactive) | 14.9 µM (inactive) | 48.3 µM (inactive) | > 100 µM (inactive) | > 100 µM (inactive) | 49.4 µM (inactive) | – | 53.6 µM (inactive) | 38.6 µM (inactive) | > 100 µM (inactive) | 89.7 µM (inactive) | 96.6 µM (inactive) | 16.8 µM (inactive) | 45.3 µM (inactive) | 59.4 µM (inactive) | – |
| S=C1Cc2c([nH]c3ccccc23)-c2ccccc2N1 | 29.5 µM (inactive) | 21.5 µM (inactive) | 69.2 µM (inactive) | 43.6 µM (inactive) | 42.9 µM (inactive) | 61 µM (inactive) | > 100 µM (inactive) | > 100 µM (inactive) | > 100 µM (inactive) | > 100 µM (inactive) | 38.6 µM (inactive) | 21.5 µM (inactive) | 19.1 µM (inactive) | 42 µM (inactive) | 96.8 µM (inactive) | > 100 µM (inactive) | > 100 µM (inactive) | > 100 µM (inactive) | 23.3 µM (inactive) | 25.9 µM (inactive) |
| COc1cc([C@H]2CC(=O)C[C@@H](c3cc(OC)c(OC)c(OC)c3)C23C(=O)c2ccccc2C3=O)cc(OC)c1OC | > 100 µM (inactive) | > 100 µM (inactive) | > 100 µM (inactive) | > 100 µM (inactive) | > 100 µM (inactive) | > 100 µM (inactive) | > 100 µM (inactive) | > 100 µM (inactive) | > 100 µM (inactive) | > 100 µM (inactive) | > 100 µM (inactive) | > 100 µM (inactive) | > 100 µM (inactive) | > 100 µM (inactive) | > 100 µM (inactive) | > 100 µM (inactive) | > 100 µM (inactive) | > 100 µM (inactive) | > 100 µM (inactive) | > 100 µM (inactive) |
| COc1c(O)ccc(C2=Cc3ccc(O)cc3OC2)c1OC | 23.4 µM (inactive) | 18.6 µM (inactive) | 18.9 µM (inactive) | 16.3 µM (inactive) | 20.7 µM (inactive) | 19.5 µM (inactive) | 32.4 µM (inactive) | 25.6 µM (inactive) | 28.2 µM (inactive) | 34.3 µM (inactive) | 23 µM (inactive) | 55.2 µM (inactive) | 11.6 µM (inactive) | 2.15 µM (inactive) | 3.68 µM (inactive) | 30.1 µM (inactive) | 2.82 µM (inactive) | 23.9 µM (inactive) | 8.81 µM (inactive) | 20.9 µM (inactive) |
| CCCCCCCCCCCC[C@@H](O)[C@H]1CCC([C@H](O)CCCCC(=O)CCCCCCCC2=C[C@H](C)OC2=O)O1 (some centres undefined) | 15.8 µM (inactive) | 14.6 µM (inactive) | > 50 µM (inactive) | > 50 µM (inactive) | > 41.7 µM (inactive) | 11.3 µM (inactive) | 2.45 µM (inactive) | 15.7 µM (inactive) | 12.5 µM (inactive) | 19.2 µM (inactive) | > 39 µM (inactive) | > 50 µM (inactive) | 7.16 µM (inactive) | 0.0773 µM (active) | > 35.2 µM (inactive) | > 50 µM (inactive) | 0.991 µM (active) | > 24.9 µM (inactive) | > 36.4 µM (inactive) | – |
| OCCN(C1=NCCN1)/[N+](=C\c1ccccn1)[CH-]c1ccccn1 | > 100 µM (inactive) | > 100 µM (inactive) | > 100 µM (inactive) | > 100 µM (inactive) | > 100 µM (inactive) | > 100 µM (inactive) | > 100 µM (inactive) | > 100 µM (inactive) | > 100 µM (inactive) | > 100 µM (inactive) | > 100 µM (inactive) | – | > 100 µM (inactive) | 8.87 µM (inactive) | > 100 µM (inactive) | > 100 µM (inactive) | > 100 µM (inactive) | > 100 µM (inactive) | > 100 µM (inactive) | > 100 µM (inactive) |
| O=C1CC(n2cccc2)c2cc(Br)sc21 (centres undefined) | > 100 µM (inactive) | > 100 µM (inactive) | > 100 µM (inactive) | > 100 µM (inactive) | > 100 µM (inactive) | > 100 µM (inactive) | 69.5 µM (inactive) | 48.3 µM (inactive) | > 100 µM (inactive) | > 100 µM (inactive) | 43.9 µM (inactive) | > 100 µM (inactive) | > 100 µM (inactive) | 15.8 µM (inactive) | 55.6 µM (inactive) | > 100 µM (inactive) | 14.5 µM (inactive) | > 100 µM (inactive) | > 100 µM (inactive) | > 100 µM (inactive) |
| Cc1cccc2cc3ccc4ccccc4c3cc12 | 37 µM (inactive) | 66.5 µM (inactive) | 56.5 µM (inactive) | 74 µM (inactive) | 51.3 µM (inactive) | > 100 µM (inactive) | 8.28 µM (inactive) | 22.1 µM (inactive) | 19.4 µM (inactive) | > 100 µM (inactive) | 51.6 µM (inactive) | 36.6 µM (inactive) | 77.8 µM (inactive) | 22.2 µM (inactive) | 38.9 µM (inactive) | 38.5 µM (inactive) | 24.9 µM (inactive) | 47.3 µM (inactive) | 87.1 µM (inactive) | 68.4 µM (inactive) |
| N#C/C(C(=O)CCl)=C1\Nc2ccccc2O1 | 2.3 µM (inactive) | 4.45 µM (inactive) | 7.28 µM (inactive) | 2.79 µM (inactive) | 2.89 µM (inactive) | 6.01 µM (inactive) | 2.56 µM (inactive) | 15.6 µM (inactive) | 1.94 µM (inactive) | 1.63 µM (inactive) | 2.9 µM (inactive) | 7.01 µM (inactive) | 3.62 µM (inactive) | 3.84 µM (inactive) | 3.71 µM (inactive) | – | 2.43 µM (inactive) | 1.49 µM (inactive) | 3.65 µM (inactive) | 4.89 µM (inactive) |
| Cc1[nH]c(-c2ccccc2)c(O)c1C(=O)OC12CC3CC(CC(C3)C1)C2 | 14.1 µM (inactive) | 15.5 µM (inactive) | 14.1 µM (inactive) | 11 µM (inactive) | 18.5 µM (inactive) | 10.3 µM (inactive) | 14.1 µM (inactive) | 15.8 µM (inactive) | 13.9 µM (inactive) | 14.7 µM (inactive) | 16.4 µM (inactive) | – | 17 µM (inactive) | 12.6 µM (inactive) | 17.4 µM (inactive) | 13.8 µM (inactive) | 55.6 µM (inactive) | 16.3 µM (inactive) | 20.1 µM (inactive) | 14.7 µM (inactive) |
| COc1cc2c(cc1OC)C(=O)/C(=C/c1ccc(O)cc1)CC2 | > 10 µM (inactive) | > 10 µM (inactive) | > 10 µM (inactive) | > 10 µM (inactive) | > 10 µM (inactive) | > 10 µM (inactive) | > 10 µM (inactive) | > 10 µM (inactive) | > 10 µM (inactive) | > 10 µM (inactive) | > 10 µM (inactive) | > 10 µM (inactive) | 2.34 µM (inactive) | > 10 µM (inactive) | > 10 µM (inactive) | > 10 µM (inactive) | 7.31 µM (inactive) | > 10 µM (inactive) | 5.82 µM (inactive) | > 10 µM (inactive) |
| Cc1cc(N(CCOS(C)(=O)=O)CCOS(C)(=O)=O)ccc1/C=N/c1ccc(-c2nc(Cc3ccccc3)sc2C)cc1 | 2.2 µM (inactive) | 10.3 µM (inactive) | 11.4 µM (inactive) | 1.8 µM (inactive) | 15.3 µM (inactive) | 10.6 µM (inactive) | 3.52 µM (inactive) | 2.03 µM (inactive) | 1.43 µM (inactive) | 14.2 µM (inactive) | 5.4 µM (inactive) | 4.6 µM (inactive) | 3.71 µM (inactive) | 1.32 µM (inactive) | 11.8 µM (inactive) | 11.2 µM (inactive) | 1.17 µM (inactive) | 15.5 µM (inactive) | 1.23 µM (inactive) | 1.75 µM (inactive) |
| Cc1cccc(N2C(=O)C3ON(C(C(N)=O)c4ccccc4)C(c4c5ccccc5c(Cl)c5ccccc45)C3C2=O)c1C (centres undefined) | 7.13 µM (inactive) | 7.78 µM (inactive) | 11.4 µM (inactive) | 7.67 µM (inactive) | 9.42 µM (inactive) | 16.6 µM (inactive) | 7.64 µM (inactive) | 9.57 µM (inactive) | 9.42 µM (inactive) | 13 µM (inactive) | 8.07 µM (inactive) | 11.8 µM (inactive) | 16.4 µM (inactive) | 1.69 µM (inactive) | 3.3 µM (inactive) | 10.3 µM (inactive) | 4.12 µM (inactive) | 9.57 µM (inactive) | 9.06 µM (inactive) | 10.6 µM (inactive) |
